The values that follow come from the supplement of paper PMC10290057.

The test system of assay [1] is HCT116. Put plainly: AC50 cell viability (CellTiter-Glo); higher = less potent. The settings on record: 48 h. For orientation: ATP-based viability assays read luminescence as a measure of living cells.
Assay [2] relates to HCT116. In words: efficacy (fitted maximal change in viability relative to DMSO control); higher = less cytotoxic (negative = loss of viability). The settings on record: 48 h.

SMILES strings stand for the structures. Where a name gives a salt, the structure may show the parent alone.
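Throughout, for AC50 cell viability (CellTiter-Glo): HCT116 colorectal carcinoma cells screened at five concentrations per compound, luminescent viability scaled between DMSO wells and empty wells on each plate, curves fitted per compound.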
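Throughout, for efficacy (fitted maximal change in viability relative to DMSO control): Luminescence-based viability readout, five doses per compound, normalized against on-plate DMSO and empty-well controls, followed by dose-response curve fitting for every drug.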

For the compound `CCCCCCC(C)(C)C1=CC2=C([C@H]3CC(=C/CC3C(C)(C)O2)\CO)C(=C1)O` (stereo not given in full) [Dexanabinol], the AC50 cell viability in the assay on HCT116 [1] was 8.33 µM. Further, the efficacy in the assay on HCT116 [2] was -93.9%.
Take `ClC1=CC=C(C=C1)C(C#N)C2=C(Cl)C=C(C=C2Cl)N3\N=C/C(=O)NC3=O` (stereo not given) [Diclazuril]: the AC50 cell viability in the assay with HCT116 [1] worked out at 23.5 µM. Besides, the efficacy in the assay on HCT116 [2] was -56%.
For `CC/C(=C(/CC)c1ccc(O)cc1)c1ccc(O)cc1` [Diethylstilbestrol], in the assay on HCT116 [1], the AC50 cell viability was determined as 18.6 µM. In addition, in the assay on HCT116 [2], the efficacy is -47.2%.
For the compound `C[C@H]1O[C@H](C[C@H](O)[C@@H]1O)O[C@H]2[C@@H](O)C[C@@H](O[C@@H]2C)O[C@H]3[C@@H](O)C[C@@H](O[C@@H]3C)O[C@H]4CC[C@@]5(C)[C@H](CC[C@@H]6[C@@H]5C[C@@H](O)[C@]7(C)[C@H](CC[C@]67O)C/8=C/C(=O)OC8)C4` [Digoxin], the AC50 cell viability with HCT116 [1] was 0.0525 µM. The efficacy in the assay with HCT116 [2] was -80.9%.
In the assay with HCT116 [1], `C[C@@H]1CC[C@@]2(OC1)O[C@H]3C[C@H]4[C@@H]5C/C=C6/C[C@H](CC[C@]6(C)[C@H]5CC[C@]4(C)[C@H]3[C@@H]2C)O[C@@H]7O[C@H](CO)[C@@H](O[C@@H]8O[C@@H](C)[C@H](O)[C@@H](O)[C@H]8O)[C@H](O)[C@H]7O[C@@H]9O[C@@H](C)[C@H](O)[C@@H](O)[C@H]9O` [Dioscin] displayed an AC50 cell viability of 5.25 µM. Moreover, in the assay with HCT116 [2], the efficacy is -101%.
For the compound `CCN(CC)C(=S)SSC(=S)N(CC)CC` [Disulfiram], the AC50 cell viability in the assay with HCT116 [1] is 16.6 µM. Also, the efficacy with HCT116 [2] was -101%.
`O=C(C(c1ccccc1)c1ccccc1)N1CCN(CC(O)COc2cccc3ncccc23)CC1` (stereo not given) [Dofequidar] had an AC50 cell viability in the assay on HCT116 [1] of 18.6 µM. In the assay with HCT116 [2], the efficacy was -50.3%.
As to `O=c1[nH]c2ccccc2n1CCCN1CCC(n2c(=O)[nH]c3cc(Cl)ccc32)CC1` [Domperidone], the AC50 cell viability in the assay with HCT116 [1] was found to be 18.6 µM. Besides, the efficacy with HCT116 [2] is -68%.
Turning to `Cc1ccc(-n2nc(C(C)(C)C)cc2NC(=O)Nc2ccc(OCCN3CCOCC3)c3ccccc23)cc1` [Doramapimod], the AC50 cell viability with HCT116 [1] was 20.9 µM. Besides, the efficacy in the assay with HCT116 [2] was -76.9%.
Consider `c1cc(-c2cnn3cc(-c4ccc(OCCN5CCCCC5)cc4)cnc23)ccn1` [Dorsomorphin], for which the AC50 cell viability with HCT116 [1] stood at 4.68 µM. The efficacy in the assay on HCT116 [2] is -82.7%.
Compound `CN1CCN(CC1)C2=CC3=C([NH]C(=N3)C/4=C(\N)C5=C(F)C=CC=C5NC4=O)C=C2` [Dovitinib] registered an AC50 cell viability with HCT116 [1] of 8.33 µM. Moreover, in the assay on HCT116 [2], the efficacy is -106%.
`C=C1/C(=C\C=C2/CCC[C@]3(C)[C@@H]([C@H](C)/C=C/[C@H](C)C(C)C)CC[C@@H]23)C[C@@H](O)C[C@@H]1O` [Doxercalciferol]: in the assay on HCT116 [1], the AC50 cell viability is 23.5 µM. Moreover, in the assay with HCT116 [2], the efficacy is -85.4%.
The compound `C[C@H]1O[C@H]([C@H](O)[C@@H]1O)N2\C=C(F)/C(=O)NC2=O` [Doxifluridine] gave an AC50 cell viability in the assay on HCT116 [1] of 7.42 µM. The efficacy in the assay on HCT116 [2] was -68.1%.
For the compound `COc1cccc2c1C(=O)c1c(O)c3c(c(O)c1C2=O)C[C@@](O)(C(=O)CO)C[C@@H]3O[C@H]1C[C@H](N)[C@H](O)[C@H](C)O1` [Doxorubicin], in the assay with HCT116 [1], the AC50 cell viability turned out to be 0.372 µM. The efficacy in the assay on HCT116 [2] was -75.3%.
For `CCCCc1oc2ccc(N[S+](C)(=O)[O-])cc2c1C(=O)c1ccc(OCCCN(CCCC)CCCC)cc1` [Dronedarone hydrochloride], in the assay on HCT116 [1], the AC50 cell viability worked out at 8.33 µM. Also, the efficacy in the assay on HCT116 [2] was -102%.
For the compound `Cc1cc(Cl)ccc1OCCCC(=O)NO` [Droxinostat], the AC50 cell viability in the assay on HCT116 [1] worked out at 20.9 µM. Further, in the assay with HCT116 [2], the efficacy was -57.1%.
Consider `C[C@H](NC1=C2N=C[NH]C2=NC=N1)C/3=C/C4=C(C(=CC=C4)Cl)C(=O)N3C5=CC=CC=C5` [Duvelisib], for which the AC50 cell viability with HCT116 [1] turned out to be 18.6 µM. For the same compound, the efficacy with HCT116 [2] is -72%.
With `CCOc1cc2c(c(F)c1OCC)C(=N)N(CC(=O)c1cc(N3CCOCC3)c(OC)c(C(C)(C)C)c1)C2` [E5555], the AC50 cell viability with HCT116 [1] was 7.42 µM. In the assay with HCT116 [2], the efficacy was -77%.
On to `COc1ccc([S+](=O)([O-])Nc2cccnc2Nc2ccc(O)cc2)cc1` [E-7010], for which the AC50 cell viability in the assay with HCT116 [1] amounted to 0.59 µM. In addition, in the assay with HCT116 [2], the efficacy is -63.2%.
For `Cc1ccc(N[S+](=O)([O-])c2cccc(C#N)c2)c2[nH]cc(C#N)c12` [E-7820], in that order: 0.417 µM and -53.2%.
In the assay on HCT116 [1], `Cc1ccccc1C(=O)c1ccc(Nc2ccc(Br)cc2N)cc1Cl` [EO-1428] gave an AC50 cell viability of 20.9 µM. In addition, the efficacy in the assay on HCT116 [2] was -75.8%.
In turn, `CS[C@H]1SC[C@@H]2C(=O)N(C)[C@H](C(C)C)C(=O)OC[C@H](NC(=O)c3cnc4ccccc4n3)C(=O)N[C@H](C)C(=O)N(C)[C@H]1C(=O)N(C)[C@H](C(C)C)C(=O)OC[C@H](NC(=O)c1cnc3ccccc3n1)C(=O)N[C@H](C)C(=O)N2C` [Echinomycin] came in with an AC50 cell viability in the assay on HCT116 [1] of 0.00372 µM. The efficacy in the assay on HCT116 [2] is -72.6%.
For `Clc1ccc(COC(Cn2ccnc2)c2ccc(Cl)cc2Cl)cc1` (stereo not given) [Econazole nitrate], in that order: 20.9 µM and -83.5%.
The like results for `CC1(C)C(N(O)C(=O)Nc2ccc(Cl)cc2)N(c2ccc(Cl)cc2)C(=O)N1CC(=O)N/N=C/C=C/c1ccc([N+](=O)[O-])o1` (stereo not given) [Eeyarestatin I] were, in that order, 8.33 µM and -89.8%.
Compound `O=C1Nc2ccc(Cl)cc2[C@@](C#CC2CC2)(C(F)(F)F)O1` [Efavirenz] gave an AC50 cell viability in the assay on HCT116 [1] of 26.3 µM. Further, the efficacy in the assay with HCT116 [2] was -97.1%.
For `CCNCCc1ccc(CN(CC)c2cc(OC)ccc2[C@@H]2CCc3cc(O)ccc3C2)cc1` [Elacestrant], in that order: 7.42 µM and -96.5%.
`CSc1ccc(C(=O)/C=C/c2cc(C)c(OC(C)(C)C(=O)O)c(C)c2)cc1` [Elafibranor] registered an AC50 cell viability in the assay with HCT116 [1] of 30.3 µM. Besides, in the assay on HCT116 [2], the efficacy is -75.5%.
The like results for `NC(=O)/C(=C/n1cnc(-c2cc(C(F)(F)F)cc(C(F)(F)F)c2)n1)c1cncnc1` [Eltanexor] were, in that order, 0.295 µM and -78.9%.
The like results for `CC[C@H]1CN2CCc3cc(OC)c(OC)cc3[C@@H]2C[C@@H]1C[C@H]1NCCc2cc(OC)c(OC)cc21` [Emetine] were, in that order, 0.0833 µM and -73.6%.
For the compound `C[C@H](NC(=O)C(=O)Nc1ccccc1C(C)(C)C)C(=O)N[C@@H](CC(=O)O)C(=O)COc1c(F)c(F)cc(F)c1F` [Emricasan], in the assay on HCT116 [1], the AC50 cell viability is 13.2 µM. The efficacy with HCT116 [2] was -89.4%.
`CC(C)(O)CNc1nc(Nc2ccnc(C(F)(F)F)c2)nc(-c2cccc(C(F)(F)F)n2)n1` [Enasidenib] displayed an AC50 cell viability in the assay with HCT116 [1] of 18.6 µM. Moreover, the efficacy in the assay with HCT116 [2] was -71.3%.
The compound `COC(=O)N[C@@H](C)CNc1nccc(-c2cn(C(C)C)nc2-c2cc(Cl)cc(N[S+](C)(=O)[O-])c2F)n1` [Encorafenib] showed an AC50 cell viability with HCT116 [1] of 4.17 µM. The efficacy with HCT116 [2] was -52.7%.
Consider `Nc1ccccc1NC(=O)c1ccc(CNC(=O)OCc2cccnc2)cc1` [Entinostat], for which the AC50 cell viability in the assay with HCT116 [1] was 2.95 µM. The efficacy with HCT116 [2] was -83.4%.
Regarding `c1cn2cc(-c3ccc4cn[nH]c4c3)nc(Nc3ccc(N4CCOCC4)cc3)c2n1` [Entospletinib], the AC50 cell viability with HCT116 [1] worked out at 5.9 µM. Moreover, the efficacy in the assay on HCT116 [2] was -34.9%.
As for `CN1CCN(c2ccc(C(=O)Nc3n[nH]c4ccc(Cc5cc(F)cc(F)c5)cc34)c(NC3CCOCC3)c2)CC1` [Entrectinib], in the assay on HCT116 [1], the AC50 cell viability is 5.25 µM. Besides, in the assay on HCT116 [2], the efficacy is -101%.
In the assay with HCT116 [1], `C[N]1C=C(C2=CC=CC=C12)\C3=C(\C(=O)NC3=O)C4=C[N](C5CCN(CC5)CC6=NC=CC=C6)C7=C4C=CC=C7` [Enzastaurin] came in with an AC50 cell viability of 14.8 µM. In addition, the efficacy in the assay on HCT116 [2] was -56.4%.
The like results for `Nc1nc(N)c2nc(-c3cccc(Cl)c3)c(N)nc2n1` [Epiblastin A] were, in that order, 1.66 µM and -85%.
In the case of `COc1cccc2c1C(=O)c1c(O)c3c(c(O)c1C2=O)C[C@@](O)(C(=O)CO)C[C@@H]3O[C@H]1C[C@H](N)[C@@H](O)[C@H](C)O1` [Epirubicin hydrochloride], in the assay with HCT116 [1], the AC50 cell viability came out at 0.372 µM. Besides, the efficacy in the assay on HCT116 [2] was -77.8%.
`COC(=O)[C@H]1[C@@H](O)[C@@]2(O)c3c(OC)cc(O[C@@H]4O[C@@H]([C@@H](O)CO)CO[C@H]4OC)cc3O[C@@]2(c2ccc(OC)cc2)[C@@H]1c1ccccc1` [Episilvestrol] yielded an AC50 cell viability in the assay with HCT116 [1] of 8.33 µM. Also, the efficacy with HCT116 [2] is -54.9%.
In the assay on HCT116 [1], `C/C(=C\c1csc(C)n1)[C@@H]1C[C@@H]2O[C@]2(C)CCC[C@H](C)[C@H](O)[C@@H](C)C(=O)C(C)(C)[C@@H](O)CC(=O)O1` [Epothilone B] returned an AC50 cell viability of 0.00662 µM. Besides, the efficacy in the assay on HCT116 [2] was -49.2%.
`C/C1=C/C[C@@H](/C(C)=C/c2csc(C)n2)OC(=O)C[C@H](O)C(C)(C)C(=O)[C@H](C)[C@@H](O)[C@@H](C)CCC1` [Epothilone D] gave an AC50 cell viability in the assay with HCT116 [1] of 0.0166 µM. In addition, the efficacy in the assay on HCT116 [2] is -60.3%.
The compound `CCOC1=CC=CC=C1N\2C(=O)C3=C(C=CC=C3)\N=C2C(C)N4CCN(CC4)C(=O)COC5=CC=C(Cl)C=C5` (stereo not given) [Erastin] returned an AC50 cell viability in the assay with HCT116 [1] of 3.32 µM. For the same compound, the efficacy with HCT116 [2] is -70.4%.
In the assay on HCT116 [1], `COc1cc(OC)cc(N(CCNC(C)C)c2ccc3ncc(-c4cnn(C)c4)nc3c2)c1` [Erdafitinib] yielded an AC50 cell viability of 13.2 µM. Moreover, the efficacy in the assay with HCT116 [2] is -123%.
For `C=C1C[C@@H]2CC[C@@]34C[C@H]5O[C@H]6[C@@H](O3)[C@H]3O[C@H](CC[C@@H]3O[C@H]6[C@H]5O4)CC(=O)C[C@@H]3[C@@H](OC)[C@@H](C[C@H](O)CN)O[C@H]3C[C@H]3O[C@@H](CC[C@@H]1O2)C[C@@H](C)C3=C` [Eribulin mesylate], in that order: 0.00241 µM and -56.4%.
Compound `C#Cc1cccc(Nc2ncnc3cc(OCCOC)c(OCCOC)cc23)c1` [Erlotinib] showed an AC50 cell viability with HCT116 [1] of 9.34 µM. In addition, in the assay with HCT116 [2], the efficacy is -47.1%.
